In PMC5218480 (PLoS ONE, 2017):

Tested on: MV-4-11 cells
Assay: Gene expression microarray analysis (Affymetrix PrimeView) and GSEA
Assay type: cell-based, human
Set-up: RFU PODN (11730768_x_at) / Fold change /veh PODN (11730768_x_at) / RFU LINC00158 (11744669_a_at) / Fold change /veh LINC00158 (11744669_a_at) / RFU DUSP10 (11751237_a_at) / Fold change /veh DUSP10 (11751237_a_at) / RFU ID3 (11757404_x_at) / Fold change /veh ID3 (11757404_x_at) / RFU PLEKHG5 (11737974_s_at) / Fold change /veh PLEKHG5 (11737974_s_at) / RFU LRRC4B (11730491_at) / Fold change /veh LRRC4B (11730491_at) / RFU GIMAP4 (11747438_a_at) / Fold change /veh GIMAP4 (11747438_a_at) / RFU KRT8 (11758183_x_at) / Fold change /veh KRT8 (11758183_x_at) / RFU CNN1 (11734310_a_at) / Fold change /veh CNN1 (11734310_a_at) / RFU VPS37D (11726825_at) / Fold change /veh VPS37D (11726825_at) / RFU C10orf10 (11716522_x_at) / Fold change /veh C10orf10 (11716522_x_at) / RFU KIR2DL2 /// KIR2DL4 /// KIR2DL5A /// KIR2DL5B /// KIR2DS1 /// KIR2DS2 /// KIR2DS3 /// KIR2DS4 /// KIR3DL3 /// KIR3DL3 /// KIR3DS1 (11738374_at) / Fold change /veh KIR2DL2 /// KIR2DL4 /// KIR2DL5A /// KIR2DL5B /// KIR2DS1 /// KIR2DS2 /// KIR2DS3 /// KIR2DS4 /// KIR3DL3 /// KIR3DL3 /// KIR3DS1 (11738374_at) / RFU C1QL1 (11718748_at) / Fold change /veh C1QL1 (11718748_at) / RFU TMPRSS4 (11747572_a_at) / Fold change /veh TMPRSS4 (11747572_a_at) / RFU HAMP (11756126_x_at) / Fold change /veh HAMP (11756126_x_at) / RFU RNFT2 (11725882_a_at) / Fold change /veh RNFT2 (11725882_a_at) / RFU NR4A2 (11747474_a_at) / Fold change /veh NR4A2 (11747474_a_at) / RFU ABCC12 (11746883_a_at) / Fold change /veh ABCC12 (11746883_a_at) / RFU TMEM136 (11760407_x_at) / Fold change /veh TMEM136 (11760407_x_at) / RFU CLDN22 /// WWC2 (11732394_at) / Fold change /veh CLDN22 /// WWC2 (11732394_at) / RFU HLA-DPB1 (11760878_x_at) / Fold change /veh HLA-DPB1 (11760878_x_at) / RFU SPINT1 (11716480_a_at) / Fold change /veh SPINT1 (11716480_a_at) / RFU GAP43 (11754022_s_at) / Fold change /veh GAP43 (11754022_s_at) / RFU A4GNT (11735810_at) / Fold change /veh A4GNT (11735810_at) / RFU PRB3 (11715151_x_at) / Fold change /veh PRB3 (11715151_x_at) / RFU TUBB4B (11761932_at) / Fold change /veh TUBB4B (11761932_at) / RFU CAPN14 (11732068_a_at) / Fold change /veh CAPN14 (11732068_a_at) / RFU TMCC2 (11721928_a_at) / Fold change /veh TMCC2 (11721928_a_at) / RFU IRGQ (11745062_a_at) / Fold change /veh IRGQ (11745062_a_at) / RFU FAM174B (11720279_a_at) / Fold change /veh FAM174B (11720279_a_at) / RFU TMPRSS4 (11748680_a_at) / Fold change /veh TMPRSS4 (11748680_a_at) / RFU FAM212B (11763350_a_at) / Fold change /veh FAM212B (11763350_a_at) / RFU PLEKHG5 (11743358_a_at) / Fold change /veh PLEKHG5 (11743358_a_at) / RFU ZSCAN30 (11745921_a_at) / Fold change /veh ZSCAN30 (11745921_a_at) / RFU CMKLR1 (11741424_a_at) / Fold change /veh CMKLR1 (11741424_a_at) / RFU LOC101060620 /// MAPK8IP1 (11723275_at) / Fold change /veh LOC101060620 /// MAPK8IP1 (11723275_at) / RFU SPTSSB (11747773_x_at) / Fold change /veh SPTSSB (11747773_x_at) / RFU PRSS12 (11739890_at) / Fold change /veh PRSS12 (11739890_at) / RFU BIN1 (11741810_x_at) / Fold change /veh BIN1 (11741810_x_at) / RFU WNT11 (11732464_a_at) / Fold change /veh WNT11 (11732464_a_at) / RFU C10orf10 (11716521_a_at) / Fold change /veh C10orf10 (11716521_a_at) / RFU C5orf56 (11738089_at) / Fold change /veh C5orf56 (11738089_at) / RFU CYB561 (11721691_x_at) / Fold change /veh CYB561 (11721691_x_at) / RFU ANKRD19P (11752326_a_at) / Fold change /veh ANKRD19P (11752326_a_at) / RFU OR2T12 /// OR2T33 /// OR2T8 (11738714_s_at) / Fold change /veh OR2T12 /// OR2T33 /// OR2T8 (11738714_s_at) / RFU VCAN (11748164_a_at) / Fold change /veh VCAN (11748164_a_at) / RFU JSRP1 (11732532_at) / Fold change /veh JSRP1 (11732532_at) / RFU KRTAP10-11 (11738290_x_at) / Fold change /veh KRTAP10-11 (11738290_x_at) / RFU MYO3A (11730013_a_at) / Fold change /veh MYO3A (11730013_a_at) / RFU EBF3 (11725865_a_at) / Fold change /veh EBF3 (11725865_a_at) / RFU CAMK2N1 (11719241_x_at) / Fold change /veh CAMK2N1 (11719241_x_at) / RFU C5orf56 (11738088_a_at) / Fold change /veh C5orf56 (11738088_a_at) / RFU OLFML3 (11715873_a_at) / Fold change /veh OLFML3 (11715873_a_at) / RFU LOC100653217 /// NTM (11731650_a_at) / Fold change /veh LOC100653217 /// NTM (11731650_a_at) / RFU MAPK11 (11762145_a_at) / Fold change /veh MAPK11 (11762145_a_at) / RFU FIZ1 (11724087_x_at) / Fold change /veh FIZ1 (11724087_x_at) / RFU OASL (11726364_x_at) / Fold change /veh OASL (11726364_x_at) / RFU SOX15 (11748057_x_at) / Fold change /veh SOX15 (11748057_x_at) / RFU CD79A (11719716_a_at) / Fold change /veh CD79A (11719716_a_at) / RFU HIST1H1D (11736915_at) / Fold change /veh HIST1H1D (11736915_at) / RFU CASKIN2 (11723855_a_at) / Fold change /veh CASKIN2 (11723855_a_at) / RFU LOC730098 (11760151_x_at) / Fold change /veh LOC730098 (11760151_x_at) / RFU OR4N2 (11742367_at) / Fold change /veh OR4N2 (11742367_at) / RFU PRRT2 (11749266_a_at) / Fold change /veh PRRT2 (11749266_a_at) / RFU SNX32 (11753110_a_at) / Fold change /veh SNX32 (11753110_a_at) / RFU CDHR5 (11726645_a_at) / Fold change /veh CDHR5 (11726645_a_at) / RFU RCAN1 (11760418_a_at) / Fold change /veh RCAN1 (11760418_a_at) / RFU FAM167A (11723789_a_at) / Fold change /veh FAM167A (11723789_a_at) / RFU FAM26E (11764081_at) / Fold change /veh FAM26E (11764081_at) / RFU ISYNA1 (11749810_s_at) / Fold change /veh ISYNA1 (11749810_s_at) / RFU ACY1 (11761880_at) / Fold change /veh ACY1 (11761880_at) / RFU 11764098_at / Fold change /veh 11764098_at / RFU SAMD14 (11745864_x_at) / Fold change /veh SAMD14 (11745864_x_at) / RFU NPB (11741838_a_at) / Fold change /veh NPB (11741838_a_at) / RFU TMPRSS6 (11731388_a_at) / Fold change /veh TMPRSS6 (11731388_a_at) / RFU KRTAP10-2 (11738614_at) / Fold change /veh KRTAP10-2 (11738614_at) / RFU ARHGAP8 /// PRR5-ARHGAP8 (11727945_x_at) / Fold change /veh ARHGAP8 /// PRR5-ARHGAP8 (11727945_x_at) / RFU KRTAP5-7 /// NADSYN1 (11734609_at) / Fold change /veh KRTAP5-7 /// NADSYN1 (11734609_at) / RFU RASL12 (11751679_a_at) / Fold change /veh RASL12 (11751679_a_at) / RFU CDKN2B (11736163_a_at) / Fold change /veh CDKN2B (11736163_a_at) / RFU PRF1 (11729649_at) / Fold change /veh PRF1 (11729649_at) / RFU, ZNF638 /// ZNF638-IT1 / Fold change vs veh, ZNF638 /// ZNF638-IT1 / RFU, PANK3 / Fold change vs veh, PANK3 / RFU, SH3YL1 / Fold change vs veh, SH3YL1 / RFU, ZEB2 / Fold change vs veh, ZEB2 / RFU, NRIP1 / Fold change vs veh, NRIP1 / RFU, PTTG1IP / Fold change vs veh, PTTG1IP / RFU, CAPN2 / Fold change vs veh, CAPN2 / RFU, MED14 / Fold change vs veh, MED14 / RFU, SNORA58 / Fold change vs veh, SNORA58 / RFU, C1orf63 / Fold change vs veh, C1orf63 / RFU, LRRFIP1 / Fold change vs veh, LRRFIP1 / RFU, NDUFAF7 / Fold change vs veh, NDUFAF7 / RFU, SLC12A2 / Fold change vs veh, SLC12A2 / RFU, IBTK / Fold change vs veh, IBTK / RFU, ESF1 / Fold change vs veh, ESF1 / Fold change vs veh, TMEM50B / RFU, TAOK1 / Fold change vs veh, TAOK1 / RFU, ACBD3 / Fold change vs veh, ACBD3 / RFU, TMA16 / Fold change vs veh, TMA16 / RFU, RWDD3 / Fold change vs veh, RWDD3 / RFU, BCAT1 / Fold change vs veh, BCAT1 / RFU, EDEM3 / Fold change vs veh, EDEM3 / RFU, TMEM33 / Fold change vs veh, TMEM33 / RFU, WDR75 / Fold change vs veh, WDR75 / RFU, AHCTF1 / Fold change vs veh, AHCTF1 / RFU, TFRC / Fold change vs veh, TFRC / RFU, ZDHHC17 / Fold change vs veh, ZDHHC17 / RFU, NOM1 / Fold change vs veh, NOM1 / RFU, ARL8B / Fold change vs veh, ARL8B / RFU, ZBTB11 / Fold change vs veh, ZBTB11 / RFU, TAMM41 / Fold change vs veh, TAMM41 / RFU, KIAA1704 /// LOC100996395 / Fold change vs veh, KIAA1704 /// LOC100996395 / RFU, ING1 / Fold change vs veh, ING1 / RFU, TRMT61B / Fold change vs veh, TRMT61B / RFU, FUBP3 / Fold change vs veh, FUBP3 / RFU, TP53 / Fold change vs veh, TP53 / RFU, TNKS2 / Fold change vs veh, TNKS2 / RFU, ZFP14 / Fold change vs veh, ZFP14 / RFU, ACTR2 / Fold change vs veh, ACTR2 / RFU, PPP3R1 / Fold change vs veh, PPP3R1 / RFU, PIK3R1 / Fold change vs veh, PIK3R1 / RFU, HNRNPA1 / Fold change vs veh, HNRNPA1 / RFU, RNF170 / Fold change vs veh, RNF170 / RFU, ZNF28 / Fold change vs veh, ZNF28 / RFU, RNGTT / Fold change vs veh, RNGTT / RFU, OGT / Fold change vs veh, OGT / RFU, BRD1 / Fold change vs veh, BRD1 / RFU, MARS / Fold change vs veh, MARS / RFU, ZNF655 / Fold change vs veh, ZNF655 / RFU, FAHD1 / Fold change vs veh, FAHD1 / RFU, BDP1 / Fold change vs veh, BDP1 / RFU, LRRCC1 / Fold change vs veh, LRRCC1 / RFU, ARID1A / Fold change vs veh, ARID1A / RFU, ZNF146 / Fold change vs veh, ZNF146 / RFU, ZNF330 / Fold change vs veh, ZNF330 / RFU, GPN3 / Fold change vs veh, GPN3 / RFU, C9orf123 / Fold change vs veh, C9orf123 / RFU, N4BP2L2 / Fold change vs veh, N4BP2L2 / RFU, ARFIP1 / Fold change vs veh, ARFIP1 / RFU, FAM179B / Fold change vs veh, FAM179B / RFU, BCL10 / Fold change vs veh, BCL10 / RFU, UHRF1BP1L / Fold change vs veh, UHRF1BP1L / RFU, BET1 / Fold change vs veh, BET1 / RFU, CNOT2 / Fold change vs veh, CNOT2 / RFU, ZNF268 / Fold change vs veh, ZNF268 / Fold change vs veh, ZNF507 / RFU, DGCR2 / Fold change vs veh, DGCR2 / RFU, WDSUB1 / Fold change vs veh, WDSUB1 / Fold change vs veh, HSP90B1 /// MIR3652 / RFU, ADSS / Fold change vs veh, ADSS / RFU, GK / Fold change vs veh, GK / RFU, ZNF148 / Fold change vs veh, ZNF148 / RFU, TAF9 / Fold change vs veh, TAF9 / RFU, SLC1A5 / Fold change vs veh, SLC1A5 / RFU, SLMO2 / Fold change vs veh, SLMO2 / RFU, ABCC4 / Fold change vs veh, ABCC4 / RFU, LOC101060439 /// RAP1B / Fold change vs veh, LOC101060439 /// RAP1B / RFU, RFX7 / Fold change vs veh, RFX7 / RFU, GTPBP10 / Fold change vs veh, GTPBP10 / RFU, CNEP1R1 / Fold change vs veh, CNEP1R1 / RFU, BIVM-ERCC5 /// ERCC5 / Fold change vs veh, BIVM-ERCC5 /// ERCC5 / RFU, ILF3 / Fold change vs veh, ILF3 / RFU 11762660_at / Fold change /veh 11762660_at / RFU VCAN (11757783_s_at) / Fold change /veh VCAN (11757783_s_at) / RFU DDX43 (11728927_at) / Fold change /veh DDX43 (11728927_at) / RFU KRT8 (11758188_x_at) / Fold change /veh KRT8 (11758188_x_at) / RFU NKD1 (11759106_at) / Fold change /veh NKD1 (11759106_at) / RFU SRD5A1 (11742802_a_at) / Fold change /veh SRD5A1 (11742802_a_at) / RFU TPSAB1 /// TPSB2 (11721975_s_at) / Fold change /veh TPSAB1 /// TPSB2 (11721975_s_at) / RFU GSTM3 (11746129_a_at) / Fold change /veh GSTM3 (11746129_a_at) / RFU IL23R (11737362_x_at) / Fold change /veh IL23R (11737362_x_at) / RFU TMEM51 (11727254_a_at) / Fold change /veh TMEM51 (11727254_a_at) / RFU PIWIL2 (11732686_x_at) / Fold change /veh PIWIL2 (11732686_x_at) / RFU ORM1 (11744905_x_at) / Fold change /veh ORM1 (11744905_x_at) / RFU CCDC152 (11743942_at) / Fold change /veh CCDC152 (11743942_at) / RFU ECM1 (11717891_a_at) / Fold change /veh ECM1 (11717891_a_at) / RFU IL23R (11748794_a_at) / Fold change /veh IL23R (11748794_a_at) / RFU TNFAIP8L3 (11732012_x_at) / Fold change /veh TNFAIP8L3 (11732012_x_at) / RFU MBOAT4 (11741988_at) / Fold change /veh MBOAT4 (11741988_at) / RFU 11764193_at / Fold change /veh 11764193_at / RFU TMEM53 (11763286_at) / Fold change /veh TMEM53 (11763286_at) / RFU MAGEB2 (11727129_at) / Fold change /veh MAGEB2 (11727129_at) / RFU TMEM200A (11744735_a_at) / Fold change /veh TMEM200A (11744735_a_at) / RFU CCDC152 (11751479_a_at) / Fold change /veh CCDC152 (11751479_a_at) / RFU FAM211A (11726209_a_at) / Fold change /veh FAM211A (11726209_a_at) / RFU RGS16 (11746705_a_at) / Fold change /veh RGS16 (11746705_a_at) / RFU VCAN (11755009_s_at) / Fold change /veh VCAN (11755009_s_at) / RFU RHOB (11743442_s_at) / Fold change /veh RHOB (11743442_s_at) / RFU RGS16 (11720943_a_at) / Fold change /veh RGS16 (11720943_a_at) / RFU RGS16 (11720944_at) / Fold change /veh RGS16 (11720944_at) / RFU, VPS4B / Fold change vs veh, VPS4B / RFU, CREB1 / Fold change vs veh, CREB1 / RFU, DNAJC13 / Fold change vs veh, DNAJC13 / RFU, GNAQ / Fold change vs veh, GNAQ / RFU, CDK5R1 / Fold change vs veh, CDK5R1 / RFU, ZRANB3 / Fold change vs veh, ZRANB3 / RFU, CUL4A / Fold change vs veh, CUL4A / RFU, CCNY / Fold change vs veh, CCNY / RFU, UFL1 / Fold change vs veh, UFL1 / RFU, COG3 / Fold change vs veh, COG3 / RFU, DIAPH2 / Fold change vs veh, DIAPH2 / RFU, SKA2 / Fold change vs veh, SKA2 / RFU, AFF3 / Fold change vs veh, AFF3 / RFU, LMF1 / Fold change vs veh, LMF1 / RFU, IPO11 / Fold change vs veh, IPO11 / RFU, DFFB / Fold change vs veh, DFFB / RFU, FOXP1 / Fold change vs veh, FOXP1 / RFU, CARD8 / Fold change vs veh, CARD8 / RFU, STRN3 / Fold change vs veh, STRN3 / RFU, ADK / Fold change vs veh, ADK / RFU, RASSF2 / Fold change vs veh, RASSF2 / RFU, WIPF1 / Fold change vs veh, WIPF1 / RFU, LARP1B / Fold change vs veh, LARP1B / RFU, RASA1 / Fold change vs veh, RASA1 / RFU, RB1 / Fold change vs veh, RB1 / RFU, PPFIA1 / Fold change vs veh, PPFIA1 / RFU, MAT2A / Fold change vs veh, MAT2A / RFU, CCT5 / Fold change vs veh, CCT5 / RFU, WDR92 / Fold change vs veh, WDR92 / RFU, CUX1 / Fold change vs veh, CUX1 / RFU, TTC7A / Fold change vs veh, TTC7A / RFU, TMEM135 / Fold change vs veh, TMEM135 / RFU, DEPTOR / Fold change vs veh, DEPTOR / RFU, CPM / Fold change vs veh, CPM / RFU, DNAJB6 / Fold change vs veh, DNAJB6 / RFU, CACNA2D3 / Fold change vs veh, CACNA2D3 / RFU, DTX4 / Fold change vs veh, DTX4 / RFU, TFCP2 / Fold change vs veh, TFCP2 / RFU, GMCL1 /// GMCL1P1 / Fold change vs veh, GMCL1 /// GMCL1P1 / RFU, AEBP2 / Fold change vs veh, AEBP2 / RFU, SNHG1 /// SNORD22 /// SNORD25 /// SNORD26 /// SNORD27 /// SNORD28 /// SNORD29 /// SNORD31 / Fold change vs veh, SNHG1 /// SNORD22 /// SNORD25 /// SNORD26 /// SNORD27 /// SNORD28 /// SNORD29 /// SNORD31 / Fold change (Aza/veh), C12orf56 (ProbeSet 11735607_a_at) / Fold change (ACY-1035/veh), C12orf56 (ProbeSet 11735607_a_at) / Fold change (Aza/veh), FGFR1OP (ProbeSet 11751329_s_at) / Fold change (ACY-1035/veh), FGFR1OP (ProbeSet 11751329_s_at) / Fold change (Aza/veh), VPS36 (ProbeSet 11739960_a_at) / Fold change (ACY-1035/veh), VPS36 (ProbeSet 11739960_a_at) / RFU SYPL1 (11715823_x_at) / Fold change /veh SYPL1 (11715823_x_at) / RFU IGFBP7 (11715501_s_at) / Fold change /veh IGFBP7 (11715501_s_at) / RFU REEP3 (11722064_at) / Fold change /veh REEP3 (11722064_at) / RFU IGLL1 (11728026_x_at) / Fold change /veh IGLL1 (11728026_x_at): dose or concentration left out as unconfirmed
Settings: ProbeSet 11740781_a_at; LIST B

Nc1ccc(-c2cccs2)cc1NC(=O)c1ccc2c(c1)cc(C1CC1)n2CCN1CCOCC1 [ACY-1035]
Fold change vs veh, ILF3: 0.88
